Source: patent publication US20190350955A1, “METHODS AND PHARMACEUTICAL COMPOSITIONS FOR THE TREATMENT OF CARDIOMYOPATHIES” (INSERM (Institut National de la Sante et de la Recherche …, priority 2016, published 2019)

What was measured:
Type in all cases: in vivo, mouse
[1] = system: control hearts; experiment: Transcriptomic analysis of control hearts after phenylephrine administration; conditions: PE 80 mg/kg/day for 15 days
Source text: (§1) Transgenic mice. All experiments with animals conformed to the Directive 2010/63/EU of the European Parliament and were approved by the ethics committee Charles Darvin #5 (agreement 00369.01). SRF^HKO mice bear the tamoxifen-inducible α-MHC-MerCrMer transgene and the Siffloxed allele (Sf/Sf) as described previously (Parlakian et al. (2005). Temporally controlled onset of dilated cardiomyopathy through disruption of the SRF gene in adult heart. Journal 112, 2930-2939; Tritsch et al. (2013). An SRF/miR-1 axis regulates NCX1 and Annexin A5 protein levels in the normal and failing heart. Journal 98, 372-380). Transgenic mice have been bred for more than 20 generations in C57BL/6N background. The mice were housed in standard animal facility (CEF. Hôpital Pitié Salpétrière, agreement A-75-13-15, 75013 Paris), under a 12-h dark/light cycle. Tamoxifen (Sigma T5648) was administrated by i.p. injection at a dose of 0.7 mg diluted in 100 μl peanut oil at day (D) 0, D1 and D2. (Sf/Sf) littermates injected with tamoxifen at the same time than mutant were used as controls.
(§2) The series of mice treated with PE and the impact of the treatment on cardiac parameters have been published previously (Tritsch et al. (2013). An SRF/miR-1 axis regulates NCX1 and Annexin A5 protein levels in the normal and failing heart. Journal 98, 372-380). Briefly. […]

[2] = system: SRF^HKO hearts; experiment: Transcriptomic analysis of SRF HKO hearts after phenylephrine administration
Source text: as §1, §2

[3] = system: Lmna^H222P/H222P mice; experiment: qPCR of cardiac remodeling markers Myh7, Nppa, Col1a2 in heart; conditions: NAM 500 mg/kg/q.a.d. IP, 9 weeks
Protocol: (§3) Mice were bred in an accredited animal facility (accreditation number: C-75-13-08). All experiments on mice were approved by the Comité d'éthique en expérimentation animate Charles Darwin No 5. Mice Lmna^H222P/H222P were backcrossed 8 times to 129S2/SvPasOrlRj strain mice to obtain pure genetic background. Male mice used for the studies were maintained under a 12 h light/12 h dark cycle at constant temperature (23° C.) with free access to food and water. Nicotinamide riboside (NR) complementation: Animals at 17 weeks of age were fed for 9 weeks with either a chow diet (A04: Scientific Animal Food & Engineering) or a chow diet complemented with 0.25% of NR (kindly provided by ChromaDex, Inc. California) corresponding to a dose of 400 mg/kg/day for a mouse weighing 25 g eating 4 g of food per day. Nicotinamide (NAM) treatment: Animals at 17 weeks of age were injected intraperitoneally (IP) every two days (q.a.d.) for 9 weeks with either physiologic serum or physiologic serum added with NAM at 50 mg/ml corresponding to a dose of 500 mg/kg for a mouse weighing 25 g.
Total RNAs were extracted from around 5 mg of mouse heart using RNeasy Mini kit (Qiagen). RNAs integrity were controlled on the Bioanalyzer 2100 (Agilent). […] Relative mRNA transcript levels calculated using the 2^ΔCT method were normalized by comparison to housekeeping mRNA.

[4] = system: SRF^HKO mice; experiment: RT-qPCR gene expression in SRF HKO heart; conditions: i.p. administration from D8 to D15
Source text: as §1
Nicotinamide and nicotinamide riboside i.p. administration. Nicotinamide was diluted in saline at 300 mM. Nicotinamide riboside (NR) bromide salt stock solution (1M) was in 10 mM citric acid pH 6.0. For injection 3 volumes of NR stock solution was mixed extemporaneously with 7 volumes of PBS to obtain a 300 mM injectable solution at pH 7.2. Mice were injected daily at a dose of 1 μmole/g body weight.
SRF^HKO and control (Sf/Sf) mice were administered either rodent maintenance SAFE A04 diet containing 3.10% crude fat. 16.10% crude proteins. 26% starch and 1.9% sugar (Scientific Animal Food Engineering, Paris, France) or SAFE # A04 diet supplemented with NR. NR was provided by Chromadex under brand name NIAGEN (Irvine Calif. USA). The soft pellets were manually prepared every 5 days by mixing 1.65 g of NR into 500 g of powdered SAFE A04 diet and 235 ml of water to reach 2.24 mg of NR/g (wet weight). Control diet was prepared in the same way omitting NR. Mice had ad libitum access to food and water. Mice (average body weight 31.3±0.82 g, no difference between groups) consumed an average of 6 g of soft food per day, reaching a daily intake of 450 mg NR/kg. No difference in food intake was observed between SRF^HKO and control mice.
cDNAs were reverse transcribed from RNA (1.5 μg) extracted in TRIzol (Thermofisher) from cell cultures and tissues using the Superscript II Reverse Transcriptase (Life Technologies). Quantitative PCR was carried out on a Light Cycler 480 (Roche Diagnostics) using Fast Start SYBR Green Master (Roche Diagnostics). Quantification of gene expression was calculated as R=2^ΔCt(Ref Cp−target Cp), with Hprt used as a as reference. Primers were designed using the NCBI Primer-BLAST software. Primer sequences are available on request.

[5] = system: Lmna^H222P/H222P mice; experiment: NAD+ content quantification in heart and liver of treated Lmna H222P/H222P mice; conditions: NAM 500 mg/kg/q.a.d. IP, from 17 weeks of age for 9 weeks, vs placebo
Protocol: as §3, with “Nicotinamide (NAM) treatment: Animals at 17 weeks of age were injected intraperitoneally (IP) every two days (q.a.d.) for 9 weeks with either physiologic serum or physiologic serum added with NAM at 50 mg/ml corresponding to a dose of 500 mg/kg for a mouse weighing 25 g.” left out
Fresh mouse tissues were homogenized and processed according to previous report (Sander B J, Oelshlegel F J & Brewer G J (1976) Quantitative analysis of pyridine nucleotides in red blood cells: a single-step extraction procedure. Anal. Biochem. 71: 29-36). The concentration of NAD+ in heart tissue was determined using a spectrophotometric assay at 550 nm based on an alcohol dehydrogenase cycling reaction, in which a Methyl Thiazolyl Tetrazolium (MTT) is reduced to Formazan. […]

[6] = system: Lmna^H222P/H222P mice; experiment: Echocardiography and heart size in treated Lmna H222P/H222P mice; conditions: NAM 500 mg/kg/q.a.d. IP, 9 weeks, vs placebo
Protocol: as §3
Mouse transthoracic echocardiography was performed using an ACUSON 128XP/10 ultrasound with a 11 Mhz linear probe (Mountain View).MHz transducer applied to the chest wall. Mice were maintained under anesthetized with 0.75% isoflurane anaesthesia (0.75% in O2) and placed on a heating pad (25° C.). Left ventricular (LV) parameters were obtained from M-mode recordings in a modified short axis view. The intra ventricular septum (IVS), LV posterior wall (LVPW), LV diameter (LVD) in diastole and systole, the percentage of fractional shortening (FS) and the heart rate (HR) were measured from the mean of at least three separate cardiac cycles. A “blinded” echocardiographer, unaware of the genotype and the treatment, performed the examinations.

CNC[C@H](O)c1cccc(O)c1 [PE, phenylephrin]
Nmrk2 expression [1]: 4 fold
Nmrk2 expression ([2]; PE 80 mg/kg/day for 15 days, SRF HKO hearts): 57 fold
Nampt and Pnp expression ([2]; PE treatment): depressed

NC(=O)c1cccnc1 [NAM, Nicotinamide]
expression of Myh7, Nppa and Col1a2 [3]: no changed expression
Srf and Nmrk2 expression levels [4]: not changed
NAD+ content in liver and heart [5]: did not exhibit any changes
cardiac contractility [6]: no significant changes
left-ventricular end diastolic diameter [6]: no significant changes
left-ventricular end systolic diameter [6]: no significant changes
